From US20250109165A1, “CYCLOPHILIN INHIBITORS AND USES THEREOF” (The Broad Institute, Inc., priority 2022, published 2025)
Entries after “also recorded” stand apart in the source; their conditions may differ. Each block holds one molecule with its values, some of them ahead of it.

Experiments:
CypE [1] = target: T1, CypE (Homo sapiens, UniProt Q9UNP9); experiment: Chymotrypsin coupled prolyl-isomerase assay; type: biochemical; conditions: for IC50: wild-type CypE, read-out: IC50^CypE
T1 construct: PPIE (UniProtKB Entry Q9UNP9: res 131-301); host or cells: E. coli BL21(DE3)
Experimental: (§1) IC50 values were calculated to be the value at which 50% inhibition was achieved on each compound's non-linear regression fitted curve.

CypE [2] = target: T1, CypE; experiment: Competition anisotropy (fluorescence polarization) binding assay with A26-Fl; conditions: for CypE binding in FP competition (in words): compared to C3A
Experimental: Competition anisotropy binding assay with A26-Fl: Adapted from previous work^54, into a flat-bottom black untreated 96 well plate (Corning), cyclophilin in assay buffer (25 mM HEPES pH 8.0, 100 mM NaCl, 0.01% Triton X-100) at a predetermined concentration from FIG. 27 was incubated with 0.5 nM A26-Fl for 10 minutes at room temperature. Competitor macrocycle was then added to each well and incubated for 24 hours. Final assay volume was 100 μL with 0.25% DMSO. Fluorescence anisotropy was then measured using a Tecan Spark® plate reader using 492 nm/523 nm excitation/emission settings. Raw fluorescence polarization data was normalized to protein+fluorescent probe and buffer+fluorescent probe and Ki values were calculated using one site-competitive binding equation with Prism 9, importing Kd values from A26-Fl (FIGS. 12A-12C).

cyclophilins = experiment: Prolyl-isomerase inhibition screen on cyclophilins and cyclophilin mutants; type: biochemical, human
Experimental: as §1

CypD = target: T2, CypD (Homo sapiens, UniProt P30405); experiment: Chymotrypsin coupled prolyl-isomerase assay; type: biochemical
T2 construct: PPIF (UniProtKB Entry P30405: res 45-207); made in house; host or cells: E. coli BL21(DE3)
Experimental: as §1

HeLa cells = experiment: Fluorescence microscopy on HeLa cells; type: cell-based, human; conditions: Cy5 labeled compound 6 μM
Experimental: Fluorescence microscopy on Hela cells. Into 96 well black, clear bottom TC treated plates, cells were seeded in Dulbecco's Modified Eagle Medium (DMEM) supplemented with 10% fetal bovine serum 24 hours prior at a density where wells were ˜80% confluent at time of experiment. Media was removed and cells were then stained with 50 μL of mixture containing Cy5 labeled compound (6 μM) in Kreb's ringer solution HEPES buffered pH 7.2 (KRB), for 1 hour at 37° C. Then, 50 μL Hoechst 33342 (8 μM) and Mitotracker Green FM (0.1 μM) in KRB was added directly to wells containing cells and incubated for 15 minutes at 37° C. Media was removed and cells were washed two times with 100 μL KRB. Cells were then kept adherent to the wells in 100 μL KRB for imaging. Fluorescence microscopy was conducted on an Opera Phenix Plus High-Content Screening System, using Alexa 488, Alexa 647, and Hoescht 33342 channels. Images were analyzed using Harmony 4.9.

T1 sequence (Q9UNP9 131-301): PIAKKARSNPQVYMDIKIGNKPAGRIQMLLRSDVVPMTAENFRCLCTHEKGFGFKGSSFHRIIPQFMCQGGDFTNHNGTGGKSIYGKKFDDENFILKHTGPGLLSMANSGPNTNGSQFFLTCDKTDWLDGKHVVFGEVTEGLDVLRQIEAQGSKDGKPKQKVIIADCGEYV
T2 sequence (P30405 45-207): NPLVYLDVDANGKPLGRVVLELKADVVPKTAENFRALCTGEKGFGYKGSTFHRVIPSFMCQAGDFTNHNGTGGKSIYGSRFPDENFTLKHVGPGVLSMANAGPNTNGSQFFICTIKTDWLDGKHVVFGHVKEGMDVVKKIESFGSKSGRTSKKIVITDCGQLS

Structure (SMILES): CC(=O)c1ccc(-c2ccc(C[C@@H]3NC(=O)[C@]4(Cc5ccccc5)CCCN(C4)C(=O)/C=C/C(=O)NCC[C@@H](C(N)=O)NC(=O)Cc4ccccc4CNC3=O)cc2)cc1B(O)O [Compound C1A]
CypE potency and selectivity in prolyl isomerase assay (in words) (CypE [1]): loss of potency and selectivity for CypE
IC50 (CypE [1]): 900 nM
CypE binding in FP competition (in words) (CypE [2]): attenuated binding to CypE; also recorded: decreased potency for CypE

cyclophilin selectivity profile (in words) (cyclophilins): hampers the selectivity
inhibition of cyclophilins tested (in words) (cyclophilins): loss of potency
Structure (SMILES): N#CCc1ccc(-c2ccc(C[C@@H]3NC(=O)[C@]4(Cc5ccccc5)CCCN(C4)C(=O)/C=C/C(=O)NCC[C@@H](C(=O)NCCOCCN)NC(=O)Cc4ccccc4CNC3=O)cc2)cc1C(=O)O [Compound B51]

Structure (SMILES): NCCOCCNC(=O)[C@@H]1CCNC(=O)/C=C/C(=O)N2CCC[C@](Cc3ccccc3)(C2)C(=O)N[C@@H](Cc2ccc(-c3ccc(CCC(=O)O)cc3)cc2)C(=O)NCc2ccccc2CC(=O)N1 [Compound B23]
cyclophilin selectivity profile (in words) (cyclophilins): selectivity over non-lysine-containing PPIL1, Cyp40, CypC, and PPWD1

Structure (SMILES): NC(=O)[C@@H]1CCNC(=O)/C=C/C(=O)N2CCC[C@](Cc3ccccc3)(C2)C(=O)N[C@@H](Cc2ccc(-c3cccc(B(O)O)c3)cc2)C(=O)NCc2ccccc2CC(=O)N1 [Compound C6A]
IC50 (CypE [1]): 4000 nM
decrease in potency relative to C3A (CypE [2]; FP competition with A26-Fl against CypE): 100 fold
CypE binding in FP competition (in words) (CypE [2]): attenuated inhibition of CypE

Structure (SMILES): CC(=O)c1cc(-c2ccc(C[C@@H]3NC(=O)[C@]4(Cc5ccccc5)CCCN(C4)C(=O)/C=C/C(=O)NCC[C@@H](C(N)=O)NC(=O)Cc4ccccc4CNC3=O)cc2)ccc1B(O)O [Compound C2A]
CypE binding in FP competition (in words) (CypE [2]): attenuated binding to CypE; also recorded: decreased potency for CypE

Structure (SMILES): NCCOCCNC(=O)[C@@H]1CCNC(=O)/C=C/C(=O)N2CCC[C@](Cc3ccccc3)(C2)C(=O)N[C@@H](Cc2ccc(-c3ccccc3)cc2)C(=O)NCc2ccccc2CC(=O)N1 [Compound B2]
cyclophilin selectivity profile (in words) (cyclophilins): selectivity over cyclophilins with sterically occluded S2 pockets

cyclophilin selectivity profile (in words) (cyclophilins): retain the same selectivity profile
Structure (SMILES): NC(=O)[C@@H]1CCNC(=O)/C=C/C(=O)N2CCC[C@](Cc3ccccc3)(C2)C(=O)N[C@@H](Cc2ccc(-c3ccc(C(CC(=O)O)CC(=O)O)cc3)cc2)C(=O)NCc2ccccc2CC(=O)N1 [Compound B53-A]

Structure (SMILES): NCCOCCNC(=O)[C@@H]1CCNC(=O)/C=C/C(=O)N2CCC[C@](Cc3ccccc3)(C2)C(=O)N[C@@H](Cc2ccc(-c3ccc(C#CC(=O)O)cc3)cc2)C(=O)NCc2ccccc2CC(=O)N1 [Compound B25]
cyclophilin selectivity profile (in words) (cyclophilins): selectivity over non-lysine-containing PPIL1, Cyp40, CypC, and PPWD1

Structure (SMILES): NC(=O)[C@H]1CCNC(=O)/C=C/C(=O)N2CCC[C@](Cc3ccccc3)(C2)C(=O)N[C@H](Cc2ccc(-c3ccc(CC(C(=O)O)C(=O)O)cc3)cc2)C(=O)NCc2ccccc2CC(=O)N1 [*B52-A]
inhibition of cyclophilins tested (in words) (cyclophilins): no substantial inhibition activity; also recorded: did not inhibit any cyclophilin

cyclophilin selectivity profile (in words) (cyclophilins): retain the same selectivity profile
Structure (SMILES): NC(=O)[C@@H]1CCNC(=O)/C=C/C(=O)N2CCC[C@](Cc3ccccc3)(C2)C(=O)N[C@@H](Cc2ccc(-c3ccc(CC(C(=O)O)C(=O)O)cc3)cc2)C(=O)NCc2ccccc2CC(=O)N1 [Compound B52-A]

Structure (SMILES): NC(=O)[C@H]1CCNC(=O)/C=C/C(=O)N2CCC[C@](Cc3ccccc3)(C2)C(=O)N[C@H](Cc2ccc(-c3ccc(C(CC(=O)O)CC(=O)O)cc3)cc2)C(=O)NCc2ccccc2CC(=O)N1 [*B53-A]
inhibition of cyclophilins tested (in words) (cyclophilins): no substantial inhibition activity; also recorded: did not inhibit any cyclophilin

CypD prolyl-isomerase inhibition (in words) (CypD): does not inhibit CypD
Structure (SMILES): CC(=O)NCCNC(=O)CCCCCN1\C(=C/C=C/C=C/C2=[N+](C)c3ccccc3C2(C)C)C(C)(C)c2ccccc21 [Cy5-enAc, reference compound]
mitochondrial localization (overlap with Mitotracker Green) (HeLa cells): good mitochondrial localization
